Test system: strains of Enterobacteriaceae producing various carbapenemases (class A, D and B; 104 strains)
Assay: Antibiotics potentiation by Compound 27 (MIC; meropenem, doripenem, ertapenem, cefepime)
Format: cell-based
Conditions: + 27 = with Compound 27 at fixed 4 μg/ml

`COc1ccc2c(c1C(=O)O)OB(O)C(Sc1nnc(N)s1)C2` (stereo not shown) [C + 27] was tested, and the MIC (strain CF1012 Citrobacter freundii (KPC-2)) was “X (MIC of less than 1 μg/mL)”, the MIC (strain CF1021 Citrobacter freundii (CMY-type; VIM-1)) was “X (MIC of less than 1 μg/mL)” and the MIC (strain CF1022 Citrobacter freundii (SHV-12(2be), TEM-OSBL(2b); IMP-8)) was “X (MIC of less than 1 μg/mL)”. The MIC (strain CF1023 Citrobacter freundii (SHV-12(2be), TEM-OSBL(2b); CTX-M-3; CMY-34; NDM-1)) was “X (MIC of less than 1 μg/mL)”, the MIC (strain CL1080 Enterobacter cloacae (IMP-1)) was “Y (MIC of 1 μg/mL to 10 μg/mL)” and the MIC (strain EA1019 Enterobacter aerogenes (SHV-5, VIM-1)) was “Y (MIC of 1 μg/mL to 10 μg/mL)”. The MIC (strain EC1007 Escherichia coli (KPC-3)) was “X (MIC of less than 1 μg/mL)”, the MIC (strain EC1061 Escherichia coli (NDM-1, CMY-6)) was “X (MIC of less than 1 μg/mL)” and the MIC (strain EC1062 Escherichia coli (OXA-48, CTX-M-15)) was “X (MIC of less than 1 μg/mL)”. For the same compound, the MIC (strain EC1064 Escherichia coli (NDM-1, CMY-6, CTX-M-15)) was “Z (MIC of greater than 10 μg/mL)”, the MIC (strain EC1065 Escherichia coli (IMP-1)) was “X (MIC of less than 1 μg/mL)” and the MIC (strain EC1068 Escherichia coli (VIM-1)) was “Y (MIC of 1 μg/mL to 10 μg/mL)”. For the same compound, the MIC (strain EC1069 Escherichia coli (CTX-M-27; NDM-1)) was “X (MIC of less than 1 μg/mL)”, the MIC (strain EC1070 Escherichia coli (TEM-OSBL(2b); CMY-42; NDM-5)) was “X (MIC of less than 1 μg/mL)” and the MIC (strain EC1072 Escherichia coli (CTX-M-3; NDM-1)) was “Y (MIC of 1 μg/mL to 10 μg/mL)”. The MIC (strain ECL1004 Enterobacter cloacae (NMC-A)) was “X (MIC of less than 1 μg/mL)”, the MIC (strain ECL1026 Enterobacter cloacae (KPC-2, TEM-1)) was “X (MIC of less than 1 μg/mL)” and the MIC (strain ECL1036 Enterobacter cloacae (KPC-3, TEM-1)) was “X (MIC of less than 1 μg/mL)”. The MIC (strain ECL1045 Enterobacter cloacae (VIM-1)) was “Y (MIC of 1 μg/mL to 10 μg/mL)”, the MIC (strain ECL1055 Enterobacter cloacae (KPC-3, TEM)) was “X (MIC of less than 1 μg/mL)” and the MIC (strain ECL1057 Enterobacter cloacae (NDM-1, TEM-1, CTX-M-15)) was “Z (MIC of greater than 10 μg/mL)”. For the same compound, the MIC (strain ECL1058 Enterobacter cloacae (KPC-3, SHV-11, TEM-1)) was “X (MIC of less than 1 μg/mL)”, the MIC (strain ECL1059 Enterobacter cloacae (KPC-3, SHV-12, TEM-1)) was “X (MIC of less than 1 μg/mL)” and the MIC (strain ECL1061 Enterobacter cloacae (KPC-3, Hyper AmpC expression)) was “Y (MIC of 1 μg/mL to 10 μg/mL)”. For the same compound, the MIC (strain ECL1082 Enterobacter cloacae (VIM-1)) was “Y (MIC of 1 μg/mL to 10 μg/mL)”, the MIC (strain ECL1084 Enterobacter cloacae (CTX-M-15; ACT-16; NDM-1)) was “X (MIC of less than 1 μg/mL)” and the MIC (strain ECL1085 Enterobacter cloacae (SHV-31(2be), TEM-1(2b); CTX-M-15; NDM-1)) was “X (MIC of less than 1 μg/mL)”. The MIC (strain ECL1086 Enterobacter cloacae (VIM-31, OXA-48(c))) was “Y (MIC of 1 μg/mL to 10 μg/mL)”, the MIC (strain ECL1087 Enterobacter cloacae (VIM-1)) was “Y (MIC of 1 μg/mL to 10 μg/mL)” and the MIC (strain ECL1088 Enterobacter cloacae (TEM-1(2b); CTX-M-14; ACT-type; VIM-1)) was “Y (MIC of 1 μg/mL to 10 μg/mL)”. For the same compound, the MIC (strain ECL1089 Enterobacter cloacae (ACT-type; IMP-1)) was “Z (MIC of greater than 10 μg/mL)”, the MIC (strain ECL1090 Enterobacter cloacae (TEM-1(2b); CTX-M-22; ACT-type; IMP-8)) was “Y (MIC of 1 μg/mL to 10 μg/mL)” and the MIC (strain ECL1091 Enterobacter cloacae (VIM-1)) was “Y (MIC of 1 μg/mL to 10 μg/mL)”. The MIC (strain ECL1092 Enterobacter cloacae (TEM-OSBL(2b); ACT-32; VIM-1)) was “X (MIC of less than 1 μg/mL)”, the MIC (strain ECL1093 Enterobacter cloacae (TEM-OSBL(2b); ACT-32; VIM-1)) was “X (MIC of less than 1 μg/mL)” and the MIC (strain ECL1094 Enterobacter cloacae (VIM-1)) was “Y (MIC of 1 μg/mL to 10 μg/mL)”. The MIC (strain ECL1096 Enterobacter cloacae (CMY-4, VIM-4, OXA-48(c))) was “X (MIC of less than 1 μg/mL)”, the MIC (strain ECL1097 Enterobacter cloacae (SHV-31(2be), TEM-OSBL(2b); CTX-M-15; ACT-31; NDM-1)) was “X (MIC of less than 1 μg/mL)” and the MIC (strain ECL1098 Enterobacter cloacae (TEM-OSBL(2b); DHA-1; ACT-16; NDM-1)) was “X (MIC of less than 1 μg/mL)”. The MIC (strain KP1001 Klebsiella pneumoniae (KPC TEM SHV)) was “Y (MIC of 1 μg/mL to 10 μg/mL)”, the MIC (strain KP1002 Klebsiella pneumoniae (KPC TEM SHV)) was “X (MIC of less than 1 μg/mL)” and the MIC (strain KP1003 Klebsiella pneumoniae (KPC TEM SHV)) was “X (MIC of less than 1 μg/mL)”. For the same compound, the MIC (strain KP1004 Klebsiella pneumoniae (KPC-2, TEM-1, SHV-11)) was “X (MIC of less than 1 μg/mL)”, the MIC (strain KP1008 Klebsiella pneumoniae (KPC-2)) was “X (MIC of less than 1 μg/mL)” and the MIC (strain KP1014 Klebsiella pneumoniae (VIM-1, TEM, SHV)) was “X (MIC of less than 1 μg/mL)”. For the same compound, the MIC (strain KP1054 Klebsiella pneumoniae (VIM-1, SHV-11)) was “X (MIC of less than 1 μg/mL)”, the MIC (strain KP1059 Klebsiella pneumoniae (VIM-1, SHV-11)) was “Y (MIC of 1 μg/mL to 10 μg/mL)” and the MIC (strain KP1061 Klebsiella pneumoniae (KPC-3, SHV-11, TEM-1)) was “X (MIC of less than 1 μg/mL)”. The MIC (strain KP1064 Klebsiella pneumoniae (KPC-2, SHV-11, TEM-1)) was “Y (MIC of 1 μg/mL to 10 μg/mL)”, the MIC (strain KP1065 Klebsiella pneumoniae (VIM-1, SHV-11)) was “X (MIC of less than 1 μg/mL)” and the MIC (strain KP1070 Klebsiella pneumoniae (KPC-2, SHV-11, TEM-1)) was “X (MIC of less than 1 μg/mL)”. For the same compound, the MIC (strain KP1074 Klebsiella pneumoniae (KPC-3, SHV-11, TEM)) was “Z (MIC of greater than 10 μg/mL)”.

From US10206937B2, “Boronic acid derivatives and therapeutic uses thereof” (Qpex Biopharma, Inc., priority 2014, dated 2019)
